{
  "source": "patent US8691186B2",
  "about": "“Imaging infection with compounds that bind to thymidine kinase” (priority 2004, dated 2014)",
  "key": {"TK deficient E. coli": {"tested_on": "TK deficient E. coli", "assay": "In vitro bacterial susceptibility assay, TK-deleted E. coli", "assay_type": "cell-based, Escherichia coli", "settings": "for Susceptibility of TK gene-deleted E. coli derivative: in vitro", "method": "(§1) 1-(2′-deoxy-2′-fluoro-β-D-arabinofuranosyl)-5-iodouracil (FIAU) (Moravek catalog no. M251) and penciclovir (Moravek catalog no. M972) were purchased from Moravek Biochemicals (Brea, Calif.). Zidovudine was purchased from Glaxo Wellcome. Bacterial susceptibility tests were performed in 96-well microtiter plates (VWR Scientific), with serial dilutions of drug placed in each well. Each well was inoculated with Escherichia coli (Yale University E. coli Genetic Stock Center, New Haven, Conn.) and grown in Luria broth (Invitrogen) at 37° C. E. coli TK mutants were generated by selecting for spontaneously resistant colonies on plates containing 1 mg/ml Zidovudine. Ten resistant clones were selected and screened for deletions in the TK gene by using the PCR primers SZ46-eTKKO20F and (5′-[…]-3′ (SEQ ID NO: 1)) SZ49-eTK-K0789R (5′-ATCAAGACGCAGCACCATG-3′ (SEQ ID NO: 2)). […] As a control for integrity of the DNA of this clone, its 16S rRNA gene was amplified by using the primers SZ-16S-Ecoli993F (5′-ACATCCACGGAAGTTT-TCAG-3′ (SEQ ID NO: 3)) SZ 16S-Ecoli454R (5′-CCGAAGGTTAAGC-TACCTAC-3′ (SEQ ID NO: 4)).\nTo determine whether the TK gene was responsible for this sensitivity, a derivative of E. coli in which the TK gene was deleted was created. […] Because FIAU can be radiolabeled by using commercially available reagents and has been successfully used to image tumor cells transfected with HSV1-TK, it was elected to test its potential for imaging bacterial infections.\nIn vitro susceptibility tests were performed on C. novyi-NT using 96 well plates containing two-fold serial dilutions of FIAU (Moravek Biochemicals) in reinforced clostridial media (Difco). Approximately, 10^5-10^6 bacteria were inoculated into each well and incubated at 37 C. overnight in an anaerobic chamber. C. novyi-NT growth was measured using an OD600. In order to test the mechanism of action of FIAU on bacteria, the thymidine kinase (TK) gene in E. coli was knocked out. An in vitro FIAU susceptibility test comparing wild type E. coli with the mutant TK deficient E. coli was preformed. […] Growth was measured using OD600."}, "Escherichia coli": {"tested_on": "Escherichia coli", "assay": "In vitro bacterial susceptibility assay, wild type E. coli", "assay_type": "cell-based", "settings": "for Susceptibility of E. coli to nucleoside analog (growth inhibition): in vitro, Luria broth, 37° C.", "method": "as §1\nTo determine whether endogenous bacterial TK could provide a reporter enzyme suitable for imaging, the susceptibility of E. coli to a variety of common nucleoside analogs was examined in vitro.\n(§2) In vitro susceptibility tests were performed on C. novyi-NT using 96 well plates containing two-fold serial dilutions of FIAU (Moravek Biochemicals) in reinforced clostridial media (Difco). Approximately, 10^5-10^6 bacteria were inoculated into each well and incubated at 37 C. overnight in an anaerobic chamber. C. novyi-NT growth was measured using an OD600. In order to test the mechanism of action of FIAU on bacteria, the thymidine kinase (TK) gene in E. coli was knocked out. An in vitro FIAU susceptibility test comparing wild type E. coli with the mutant TK deficient E. coli was preformed. 96 well plates were used containing two-fold serial dilutions of FIAU in Lauria Broth. Approximately, 10^5-10^6 bacteria were inoculated into each well and incubated at 37 C. overnight. Growth was measured using OD600."}, "C. novyi-NT [1]": {"tested_on": "C. novyi-NT", "assay": "In vitro susceptibility test on C. novyi-NT", "assay_type": "cell-based, Clostridium novyi-NT", "settings": "reinforced clostridial media, overnight, anaerobic, OD600", "method": "as §2"}, "[2]": {"tested_on": "E. faecalis, S. aureus, S. epidermidis, and S. pneumoniae", "assay": "Time course of imaging of infections caused by pathogenic bacteria in mice", "assay_type": "in vivo", "method": "(§3) E. coli strains or clinical isolates from the Johns Hopkins Hospital Microbiology Laboratory, including Staphylococcus aureus 29213 and 25923, Streptococcus pneumoniae 49619, Enterococcus faecalis 49532, and Staphylococcus epidermidis F362, were used to create experimental infections. Bacteria were grown to log phase in Mueller Hinton Broth with Cations (Remel, Lenexa, Kans.) or BBL Todd Hewitt Broth (Becton Dickinson). Localized infections were generated by injecting 1×10^9 E. coli and ≈1×10^8 of the other bacterial strains into mouse thighs. […] To quantify the minimal number of bacteria required to generate signals upon imaging, mice were injected in the thigh with various amounts of S. aureus 25923. One hour later, the mice were killed, the muscles were harvested and homogenized, and the extracts spread on blood agar plates (Becton Dickinson) for colony counting.\n(§4) Mice were injected with 225 μCi of [^125I]FIAU via the tail vein and imaged at various time points thereafter. Before imaging, mice were anesthetized via s.c. administration of acepromazine and ketamine. Each scan took min with a dedicated small-animal single-photon emission computed tomography (SPECT)/computed tomography (CT) camera (Gamma Medica X-SPECT, Northridge, Calif.) in planar acquisition mode using a low-energy high-resolution (LEHR) parallel-hole collimator. For each bacterial strain used, at least two mice were injected and imaged. To obtain SPECT/CT images, animals were first scanned for ≈40 min by using a small-animal SPECT camera in tomographic acquisition mode, using two LEHR parallel-hole collimators. The animals then underwent CT by using appropriate fiducial markers that allowed coregistration.\nAccordingly, this time point was chosen for detailed analyses. Biodistribution studies were performed in mice injected with 1×10^8 S. aureus 25923 into one thigh. Six hours later, the mice were injected with 2 μCi of [^125I]FIAU, and, after another 24 h, the mice were killed, their organs were harvested, and radioactivity was determined. […]"}, "C. novyi-NT [3]": {"tested_on": "C. novyi-NT", "assay": "Imaging of intratumoral C. novyi-NT infection in tumor-bearing mice", "assay_type": "in vivo, Clostridium novyi-NT", "method": "All animal experiments were overseen and approved by the Animal Welfare Committee of The John Hopkins University and were in compliance with university standards. Six- to 8-wk-old athymic nu/nu or BALB/c mice, purchased from Harlan Bioproducts for Science (Indianapolis), were used for tumor implantation studies. Five million cells were injected s.c. into the right flank of each mouse. Tumor volume was calculated as length×width^2×0.5, and mice were treated with Clostridium novyi-NT spores when tumors occupied ˜250 mm^3. C. novyi-NT spores were prepared as described (15), and mice were i.v. injected with 300 million spores suspended in 250 μl of PBS.\nas §4\nBALB/c mice bearing CT-26 mouse colon tumors were treated with a single i.v. injection of C. novyi-NT and [^125I]FIAU was administered 24 h later.\nFor in vivo studies, FIAU was labeled with 1-125. The optimal time course for imaging mice harboring HCTZ 16 colon cancer xenografts was determined empirically by varying the time of injection of FIAU in relation to C. novyi-NT. Biodistribution studies were performed in 12 athymic nu/nu mice harboring HCTZ 16 xenografts ˜350-400 mm^3, six of which were injected with 300 million C. novyi-NT spores 24 hrs prior to 2 uCi of 1-125 FIAU. Eight hours after I-125 FIAU injection, all twelve mice were euthanized by cervical dislocation and the brain, lungs, heart, blood, small and large intestine, liver, kidneys, muscle and tumor were harvested and weighed. The activity in each tissue was measured using an automated gamma counter (LKB Wallace 1282 Compugamma CS Universal Gamma Counter). The percent-injected dose per gram of tissue (% ID/g) was calculated by comparison with samples of a standard dilution of the initial dose. […]"}, "[4]": {"tested_on": "Streptococcus pneumoniae 49619", "assay": "In vivo imaging of S. pneumoniae thigh infection in mice", "settings": "mouse thigh infection", "method": "as §3\n(§5) Mice were injected with 225 μCi of [^125I]FIAU via the tail vein and imaged at various time points thereafter. Before imaging, mice were anesthetized via s.c. administration of acepromazine and ketamine. Each scan took min with a dedicated small-animal single-photon emission computed tomography (SPECT)/computed tomography (CT) camera (Gamma Medica X-SPECT, Northridge, Calif.) in planar acquisition mode using a low-energy high-resolution (LEHR) parallel-hole collimator. […]"}, "S. aureus 25923": {"tested_on": "S. aureus 25923", "assay": "Minimal number of bacteria that could be imaged in mouse thigh", "assay_type": "in vivo, Staphylococcus aureus", "settings": "1 h after bacterial injection", "method": "as §3\nTo determine the minimal number of bacteria that could be imaged with this approach, various numbers of S. aureus 25923 were injected into mouse thighs. One hour later, the thigh tissue was excised, homogenized, and spread on blood agar plates. The 1-h time point was chosen because this was the earliest time point at which injections of [^125I]FIAU consistently produced discernable scintigraphic images of infectious foci. As few as 2×10^6 colony-forming units per gram of muscle tissue produced discernable signals."}, "[5]": {"tested_on": "Staphylococcus aureus 29213 and 25923", "assay": "In vivo imaging of S. aureus thigh infection in mice", "settings": "mouse thigh infection", "method": "as §3, §5"}, "[6]": {"tested_on": "Enterococcus faecalis 49532", "assay": "In vivo imaging of E. faecalis thigh infection in mice", "settings": "mouse thigh infection", "method": "as §3, §5"}, "WT E. coli": {"tested_on": "WT E. coli", "assay": "In vivo imaging of WT E. coli thigh infection in mice", "design": "species or system Escherichia coli", "method": "as §3, §4\n[^125I]FIAU was synthesized by standard methods and injected i.v. into animals 6 h after intramuscular inoculations of bacteria into the thighs of mice. […] Signals from the infectious lesions could be seen as early as 2 h after injection of [^125I]FIAU and were optimal 16 h after injection."}, "[7]": {"tested_on": "Staphylococcus epidermidis F362", "assay": "In vivo imaging of S. epidermidis thigh infection in mice", "settings": "mouse thigh infection", "method": "as §3, §5"}, "[8]": {"tested_on": "TK-deficient (TK−) strain of E. coli", "assay": "In vivo imaging of TK- E. coli thigh infection in mice", "design": "species or system Escherichia coli", "settings": "same mice, opposite thighs", "method": "as §3, §5"}, "[9]": {"settings": "BALB/c mice, CT-26 tumors, tracer 24 h after C. novyi-NT i.v."}},
  "data": [
    {"smiles": "O=c1[nH]c(=O)n([C@@H]2O[C@H](CO)[C@@H](O)[C@@H]2F)cc1I", "note": "[FIAU, 1-(2′-deoxy-2′-fluoro-β-D-arabinofuranosyl)-5-iodouracil]", "values": [
      {"measurement": "Susceptibility of TK gene-deleted E. coli derivative", "setting": "TK deficient E. coli", "result": "highly resistant"},
      {"measurement": "Growth inhibition of TK deficient E. coli", "setting": "TK deficient E. coli; two-fold serial dilutions, overnight, OD600", "result": "not inhibited at any concentration"},
      {"measurement": "Susceptibility of E. coli to nucleoside analog (growth inhibition)", "setting": "Escherichia coli", "result": "quite sensitive"},
      {"measurement": "log10 IC50 (M)", "setting": "Escherichia coli; wild type E. coli, Lauria Broth, overnight, OD600", "result": -10},
      {"measurement": "minimum inhibitory concentration 50 (MIC50)", "setting": "C. novyi-NT [1]", "result": "~20", "unit": "µg/mL"}
    ]},
    {"smiles": "Cc1cn([C@H]2C[C@H](N=[N+]=[N-])[C@@H](CO)O2)c(=O)[nH]c1=O", "note": "[Zidovudine]", "values": [
      {"measurement": "Susceptibility of TK gene-deleted E. coli derivative", "setting": "TK deficient E. coli", "result": "moderately resistant"},
      {"measurement": "Susceptibility of E. coli to nucleoside analog (growth inhibition)", "setting": "Escherichia coli", "result": "quite sensitive"}
    ]},
    {"smiles": "O=c1[nH]c(=O)n([C@@H]2O[C@H](CO)[C@@H](O)[C@@H]2F)cc1[125I]", "note": "[[^125I]FIAU, 2′-fluoro-2′deoxy-1-beta-D-arabinofuranosyl-5-iodo-uracil]", "values": [
      {"measurement": "Signal-to-noise ratio in infectious foci 24 h after administration", "setting": "[2]; 24 h after administration", "result": "high signal-to-noise ratios"},
      {"measurement": "Signal-to-noise ratio by 48 h after administration", "setting": "[2]; 48 h after administration of the tracer", "result": "very high signal-to-noise ratios"},
      {"measurement": "Earliest time at which robust signals could be observed after administration", "setting": "[2]; mouse thigh infections, patient-derived strains", "result": 4, "unit": "h"},
      {"measurement": "Earliest time at which tumors could be visualized after injection of tracer", "setting": "C. novyi-NT [3]; [9]", "result": 16, "unit": "h"},
      {"measurement": "Time of maximum uptake after injection", "setting": "C. novyi-NT [3]; [9]", "result": "24 to 48", "unit": "h"},
      {"measurement": "Uptake in tumors not treated with C. novyi-NT", "setting": "C. novyi-NT [3]; CT-26 tumors, no C. novyi-NT", "result": "No uptake"},
      {"measurement": "Imaging of tumor types responsive to bacteriolytic therapy", "setting": "C. novyi-NT [3]; HCT116, HuCCTI or CT26 tumors, after C. novyi-NT spores", "result": "able to be imaged"},
      {"measurement": "Imaging of infectious foci due to S. pneumoniae", "setting": "[4]", "result": "readily imaged"},
      {"measurement": "Minimal number of bacteria producing discernable signals", "setting": "S. aureus 25923", "result": "2×10^6 colony-forming units per gram of muscle tissue"},
      {"measurement": "Imaging of infectious foci due to S. aureus", "setting": "[5]", "result": "readily imaged"},
      {"measurement": "Imaging of infectious foci due to E. faecalis", "setting": "[6]", "result": "readily imaged"},
      {"measurement": "Earliest time at which signals from infectious lesions could be seen after injection", "setting": "WT E. coli; WT E. coli thigh infection", "result": 2, "unit": "h"},
      {"measurement": "Time after injection at which signals were optimal", "setting": "WT E. coli; WT E. coli thigh infection", "result": 16, "unit": "h"},
      {"measurement": "Uptake within infected thighs (whole-body planar scintigram)", "setting": "WT E. coli; tracer i.v. 6 h after i.m. inoculation", "result": "demonstrated the uptake"},
      {"measurement": "Imaging of infectious foci due to S. epidermidis", "setting": "[7]", "result": "readily imaged"},
      {"measurement": "Uptake in thighs inoculated with TK- E. coli", "setting": "[8]", "result": "no discernable uptake"}
    ]},
    {"smiles": "Nc1nc2c(ncn2COC(CO)CO)c(=O)[nH]1", "note": "[genciclovir]", "values": [
      {"measurement": "Susceptibility of E. coli to nucleoside analog (growth inhibition)", "setting": "Escherichia coli", "result": "resistant"}
    ]},
    {"smiles": "Nc1nc2c(ncn2CCC(CO)CO)c(=O)[nH]1", "note": "[penciclovir]", "values": [
      {"measurement": "Susceptibility of E. coli to nucleoside analog (growth inhibition)", "setting": "Escherichia coli", "result": "resistant"}
    ]}
  ]
}
